Experimental data taken from patent US20260199505A1, “COMBINATION THERAPY COMPRISING BISPECIFIC ANTIBODIES COMPRISING AN NRP1 BINDING DOMAIN” (Pinetree Therapeutics, Inc., priority 2022, published 2026).
Counter-ions that a name gives are not always drawn.

Assays:
H1975-HGF = H1975-HGF (HGF-overexpressing) xenograft model; format: in vivo, mouse; settings: for tumor volume over time (FIG. 6B): second set, Osimertinib 10 mg/kg i.p. QD, Crizotinib 20 mg/kg i.p. QD, EGFR degrader 15 mg/kg i.p. QW; for tumor volume over time (FIG. 6A): first set, Panitumumab 5 mg/kg, EGFR degrader 6.87 mg/kg, Amivantamab 5.05 mg/kg i.p. BIW, Osimertinib 3 mg/kg i.p. QD
Method: (§1) The H1975-HGF cell line was prepared by recombinantly engineering the H1975 cell line to express HGF by standard methods. Thus, the H1975-HGF xenograft model represents a dual activation model in which both the EGFR and cMET pathways are constitutively activated.

HGF/cMET pathway = HGF/cMET pathway inhibition in H1975 cells; format: cell-based; settings: data not shown
Method: as §1

H1975-NRP1 OE = H1975-NRP1 OE (NRP1-overexpressing) xenograft model; settings: 3 mg/kg Osimertinib
Description: (§2) In this example, a modified version of the H1975 xenograft model was used in which the tumor cells were engineered to overexpress NRP1.

H1975-OR = assay: Osimertinib-resistant mouse xenograft model (H1975-OR); format: in vivo; settings: Osimertinib dose of 3 mg/kg
Description: Panitumumab is a fully humanized anti-EGFR monoclonal antibody, which binds to EGFR and block the EGFR signaling. Osimertinib is an EGFR tyrosine kinase inhibitor.

H1975 = H1975 (Osimertinib-sensitive, parental) xenograft mouse model; format: in vivo; settings: 3 mg/kg Osimertinib
Description: as §2

For `C[C@@H](Oc1cc(-c2cnn(C3CCNCC3)c2)cnc1N)c1c(Cl)ccc(F)c1Cl` [Crizotinib], the “tumor volume over time (FIG. 6B)” value (H1975-HGF) was “limited efficacy” and the cMET pathway signaling (HGF/cMET pathway) was “blocked cMET pathway signaling”.

For `C=CC(=O)Nc1cc(Nc2nccc(-c3cn(C)c4ccccc34)n2)c(OC)cc1N(C)CCN(C)C` [Osimertinib, N-(2-{2-dimethylaminoethyl-methylamino}-4-methoxy-5-{[4-(1-methylindol-3-yl)pyrindin-2-yl]amino}phenyl)prop-2-enamide mesylate salt], the tumor response (H1975-NRP1 OE) was “significant tumor progression”, the “tumor volume over time (FIG. 6A)” value (H1975-HGF) was “exhibited resistance” and the “tumor volume over time (FIG. 6B)” value (H1975-HGF) was “did not prevent tumor growth over time”. For the same molecule, the anti-tumor activity (H1975-OR) was “did not show anti-tumor activity” and the tumor response (H1975) was “strong and persistent tumor regression”.

In the case of “Panitumumab: fully humanized anti-EGFR monoclonal antibody, which binds to EGFR and block the EGFR signaling”, the “tumor volume over time (FIG. 6A)” value (H1975-HGF) is reported as “exhibited resistance”.

B1: Amivantamab: an EGFR×cMET bispecific antibody construct (antibody, chains of the INN, looked up, V domains shown)
VH: QVQLVESGGGVVQPGRSLRLSCAASGFTFSTYGMHWVRQAPGKGLEWVAVIWDDGSYKYYGDSVKGRFTISRDNSKNTLYLQMNSLRAEDTAVYYCARDGITMVRGVMKDYFDYWGQGTLVTVSS
VL: AIQLTQSPSSLSASVGDRVTITCRASQDISSALVWYQQKPGKAPKLLIYDASSLESGVPSRFSGSESGTDFTLTISSLQPEDFATYYCQQFNSYPLTFGGGTKVEIK
VH2: QVQLVQSGAEVKKPGASVKVSCETSGYTFTSYGISWVRQAPGHGLEWMGWISAYNGYTNYAQKLQGRVTMTTDTSTSTAYMELRSLRSDDTAVYYCARDLRGTNYFDYWGQGTLVTVSS
VL2: DIQMTQSPSSVSASVGDRVTITCRASQGISNWLAWFQHKPGKAPKLLIYAASSLLSGVPSRFSGSGSGTDFTLTISSLQPEDFATYYCQQANSFPITFGQGTRLEIK
For B1, the cMET degradation (HGF/cMET pathway) was “led to cMET degradation” and the cMET pathway signaling (HGF/cMET pathway) was “blocked cMET pathway signaling”.
